For one experiment, the system named is MEIS1 mRNA expression. The experiment is described as follows: MEIS1 mRNA expression assay (Quantigene Singleplex) in MOLM14 cells. The format is cell-based, human. As to conditions: 48 hours incubation. The essentials:
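MOLM14 cells, 3,750/well, exposed to increasing compound concentrations for 48 h. MEIS1 mRNA measured by QuantiGene Singleplex branched-DNA hybridization (lysis 45 min, hybridization 18–22 h, both 55 °C), normalized to RPL28. IC50 fitted to background-corrected fold change versus DMSO.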

The target in experiment [1] is T1, menin/MLL (terbium chelate-labeled menin, FITC-MBM1 peptide) (Homo sapiens, UniProt O00255, T541A).
T1 construct: Menin (a.a 1-610-6xhis tag, 2.3 mg/mL in 20 mM Hepes)
T1 sequence (O00255 with tags, fused parts or gaps T541A): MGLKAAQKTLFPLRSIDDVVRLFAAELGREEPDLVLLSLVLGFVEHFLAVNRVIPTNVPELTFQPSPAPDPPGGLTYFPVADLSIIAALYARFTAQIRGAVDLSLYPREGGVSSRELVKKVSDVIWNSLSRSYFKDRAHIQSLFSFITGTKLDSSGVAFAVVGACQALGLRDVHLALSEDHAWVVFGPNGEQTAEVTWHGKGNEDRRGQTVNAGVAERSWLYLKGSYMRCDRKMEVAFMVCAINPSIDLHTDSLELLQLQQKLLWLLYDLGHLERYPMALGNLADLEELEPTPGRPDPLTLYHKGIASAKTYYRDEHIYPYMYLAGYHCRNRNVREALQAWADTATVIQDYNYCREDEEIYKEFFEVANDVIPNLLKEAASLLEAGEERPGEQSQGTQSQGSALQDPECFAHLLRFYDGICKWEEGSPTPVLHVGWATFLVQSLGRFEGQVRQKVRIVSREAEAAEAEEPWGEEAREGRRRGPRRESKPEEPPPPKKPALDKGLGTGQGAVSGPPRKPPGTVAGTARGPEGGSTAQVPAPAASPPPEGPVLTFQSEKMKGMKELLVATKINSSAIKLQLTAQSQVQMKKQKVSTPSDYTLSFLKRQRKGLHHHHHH
Nature of the experiment: Menin/MLL homogenous time-resolved fluorescence (HTRF) assay. The format is binding. The note with it: 30 min incubation. The method in brief:
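Terbium-labeled menin (a.a. 1-610, His-tagged; […]) pre-incubated 30 min with compound, then 75 nM FITC-MBM1 peptide added for 15 min at ambient temperature in Tris pH 7.5 buffer, 0.5% DMSO. HTRF 520/490 nm ratio read; IC50 from 11-point four-fold titrations, typically from 10 μM.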
In general terms: In TR-FRET formats the signal depends on donor and acceptor labels being close together.

As a reminder, the IC50 is the concentration at which inhibition is half-maximal. Low readings indicate higher potency, high ones lower potency.

For `CC[C@@H]([C@H]1C[C@@H](N2C[C@H]3CN(C(C)=O)C[C@@H]3C2)C1)N1CC[C@H](Cc2cn(-c3ccc(F)cc3C(=O)N(C)C(C)C)c3cncc(Cl)c23)C1` (single isomer, unassigned) [Compound 27c], the 50% inhibitory concentration (IC50) turned out to be 40 nM with MEIS1 mRNA expression (Homo sapiens, MOLM-14, 48 h) and 0.038 nM in experiment [1].
In the case of `CC[C@@H]([C@H]1C[C@H](N2C[C@H]3CN(C(C)=O)C[C@@H]3C2)C1)N1CC[C@H](Cc2cn(-c3ccc(F)cc3C(=O)N(C)C(C)C)c3cncc(Cl)c23)C1` (single isomer, unassigned) [Compound 27d], the half-maximal inhibitory concentration (IC50) with MEIS1 mRNA expression (Homo sapiens, MOLM-14, 48 h) was found to be 80 nM; in experiment [1], 0.013 nM.
In the case of `CC(=O)N1C[C@@H]2CN([C@H]3C[C@@H](CN4CC[C@@H](Cc5cn(-c6ccc(F)cc6C(=O)N(C)C(C)C)c6cncc(C)c56)C4)C3)C[C@H]2C1` (single isomer, unassigned) [Compound 30], the IC50 was above 1000 nM in the experiment on MEIS1 mRNA expression (Homo sapiens, MOLM-14, 48 h) and around 0.49 nM in experiment [1].
For `CC(=O)N1C[C@@H]2CN([C@H]3C[C@@H](CN4CC[C@H](Cc5cn(-c6ccc(F)cc6C(=O)N(C)C(C)C)c6cncc(C)c56)C4)C3)C[C@H]2C1` (single isomer, unassigned) [Compound 31], in that order: around 470 nM and 0.052 nM.
Regarding `CC(=O)N1CCN([C@H]2C[C@@H]([C@H](C(C)C)N3CC(Cc4cn(-c5ccc(F)cc5C(=O)N(C)C(C)C)c5cncc(C)c45)C3)C2)CC1` (single isomer, unassigned) [Compound 32b], the half-inhibitory concentration (IC50) in the experiment with MEIS1 mRNA expression (Homo sapiens, MOLM-14, 48 h) is above 1000 nM; in experiment [1], 0.472 nM.
In the case of `Cc1cncc2c1c(CC1CN([C@@H](C(C)C)[C@H]3C[C@@H](N4CCN(S(C)(=O)=O)CC4)C3)C1)cn2-c1ccc(F)cc1C(=O)N(C)C(C)C` (single isomer, unassigned) [Compound 34a], the 50% inhibitory concentration (IC50) with MEIS1 mRNA expression (Homo sapiens, MOLM-14, 48 h) was found to be 16 nM; in experiment [1], 0.019 nM.
For `Cc1cncc2c1c(CC1CN([C@@H](C(C)C)[C@H]3C[C@H](N4CCN(S(C)(=O)=O)CC4)C3)C1)cn2-c1ccc(F)cc1C(=O)N(C)C(C)C` (single isomer, unassigned) [Compound 34b], in that order: 25 nM and 0.092 nM.
As for `CC(=O)N1C[C@@H]2CN([C@H]3C[C@H]([C@@H](C(C)C)N4CC(Cc5cn(-c6ccc(F)cc6C(=O)N(C)C(C)C)c6cncc(Cl)c56)C4)C3)C[C@H]2C1` (single isomer, unassigned) [Compound 39b], the half-inhibitory concentration (IC50) with MEIS1 mRNA expression (Homo sapiens, MOLM-14, 48 h) came out at 35 nM; in experiment [1], 0.052 nM.
As for `CC(=O)N1C[C@@H]2CN([C@H]3C[C@@H](C(C(C)C)N4CC(Cc5cn(-c6ccc(F)cc6C(=O)N(C)C(C)C)c6cncc(Cl)c56)C4)C3)C[C@H]2C1` (single isomer, unassigned) [Compound 40a], the concentration for half-maximal inhibition (IC50) was around 540 nM in the experiment with MEIS1 mRNA expression (Homo sapiens, MOLM-14, 48 h) and 0.841 nM in experiment [1].
As for `CC(=O)N1C[C@@H]2CN([C@H]3C[C@H](C(C(C)C)N4CC(Cc5cn(-c6ccc(F)cc6C(=O)N(C)C(C)C)c6cncc(Cl)c56)C4)C3)C[C@H]2C1` (single isomer, unassigned) [Compound 40b], the half-inhibitory concentration (IC50) was around 680 nM with MEIS1 mRNA expression (Homo sapiens, MOLM-14, 48 h) and 0.182 nM in experiment [1].
For `Cc1cncc2c1c(C[C@@H]1CCN(CC3COC3)C1)cn2-c1ccc(F)cc1C(=O)N(C)C(C)C` (single isomer, unassigned) [Compound 46], in that order: 92 nM and 0.047 nM.
For the compound `Cc1cncc2c1c(C[C@H]1CCN(CC3COC3)C1)cn2-c1ccc(F)cc1C(=O)N(C)C(C)C` (single isomer, unassigned) [Compound 47], the concentration for half-maximal inhibition (IC50) with MEIS1 mRNA expression (Homo sapiens, MOLM-14, 48 h) turned out to be 55 nM; in experiment [1], 0.042 nM.
On to `Cc1cncc2c1c(CC1CCN(C[C@H]3CC[C@H](NS(C)(=O)=O)CC3)C1)cn2-c1ccc(F)cc1C(=O)N(C)C(C)C` (single isomer, unassigned) [Compound 68], for which the 50% inhibitory concentration (IC50) is 32 nM in the experiment with MEIS1 mRNA expression (Homo sapiens, MOLM-14, 48 h) and 0.043 nM in experiment [1].
Take `CC(=O)N[C@H]1CC[C@H](CN2CCC(Cc3cn(-c4ccc(F)cc4C(=O)N(C)C(C)C)c4cncc(C)c34)C2)CC1` (single isomer, unassigned) [Compound 72]: the half-maximal inhibitory concentration (IC50) in the experiment with MEIS1 mRNA expression (Homo sapiens, MOLM-14, 48 h) was found to be 182 nM; in experiment [1], 0.173 nM.
As to `CC(=O)N[C@H]1CC[C@H](CN2CC[C@H](Cc3cn(-c4ccc(F)cc4C(=O)N(C)C(C)C)c4cncc(C)c34)C2)CC1` (single isomer, unassigned) [Compound 73], the IC50 worked out at 101 nM in the experiment on MEIS1 mRNA expression (Homo sapiens, MOLM-14, 48 h) and 0.057 nM in experiment [1].
As to `CN=S(=O)(c1cc(F)ccc1-n1cc(CC2CCN(CC3CCOCC3)C2)c2c(C)cncc21)C(C)C` (single isomer, unassigned) [Compound 77c], the IC50 with MEIS1 mRNA expression stood at 669 nM; in experiment [1], 0.546 nM.
In the case of `Cc1cncc2c1c(C[C@@H]1CCN(CC3CCOCC3)C1)cn2-c1ccc(F)cc1[S@](=N)(=O)C(C)C` (single isomer, unassigned) [Compound 78a], the IC50 was around 690 nM in the experiment with MEIS1 mRNA expression (Homo sapiens, MOLM-14, 48 h) and 1.22 nM in experiment [1].
`Cc1cncc2c1c(C[C@@H]1CCN(CC3CCOCC3)C1)cn2-c1ccc(F)cc1[S@](=N)(=O)C(C)C` (single isomer, unassigned) [Compound 78b]: the IC50 in the experiment on MEIS1 mRNA expression turned out to be 361 nM; in experiment [1], 0.552 nM.
As for `Cc1cncc2c1c(C[C@H]1CCN(CC3CCOCC3)C1)cn2-c1ccc(F)cc1[S@@](=N)(=O)C(C)C` (single isomer, unassigned) [Compound 78d], the half-inhibitory concentration (IC50) in the experiment on MEIS1 mRNA expression (Homo sapiens, MOLM-14, 48 h) was determined as 538 nM; in experiment [1], 0.875 nM.
Turning to `Cc1cncc2c1c(CC1CCN(CC3CCN(C(=O)CCO)CC3)C1)cn2-c1ccc(F)cc1C(=O)N(C)C(C)C` (single isomer, unassigned) [Compound 82], the IC50 in the experiment with MEIS1 mRNA expression (Homo sapiens, MOLM-14, 48 h) was 11 nM; in experiment [1] it was around 0.035 nM.
Turning to `Cc1cncc2c1c(CC1CCN(CC3CCN(C(=O)CO)CC3)C1)cn2-c1ccc(F)cc1C(=O)N(C)C(C)C` (single isomer, unassigned) [Compound 87], the IC50 with MEIS1 mRNA expression (Homo sapiens, MOLM-14, 48 h) came out at 27 nM; in experiment [1], 0.042 nM.
Turning to `CC(=O)N1CCC[C@H](CN2CC(Cc3cn(-c4ccc(F)cc4C(=O)N(C)C(C)C)c4cncc(C)c34)C2)C1` (single isomer, unassigned) [Compound 90a], the half-maximal inhibitory concentration (IC50) in the experiment on MEIS1 mRNA expression (Homo sapiens, MOLM-14, 48 h) was around 127 nM; in experiment [1], 0.391 nM.
On to `CC(=O)N1CCC[C@@H](CN2CC(Cc3cn(-c4ccc(F)cc4C(=O)N(C)C(C)C)c4cncc(C)c34)C2)C1` (single isomer, unassigned) [Compound 90b], for which the IC50 turned out to be 103 nM with MEIS1 mRNA expression (Homo sapiens, MOLM-14, 48 h) and 0.263 nM in experiment [1].
As for `CC(=O)N1CC[C@@H](CN2CCC(Cc3cn(-c4ccc(F)cc4C(=O)N(C)C(C)C)c4cncc(C)c34)C2)C1` (single isomer, unassigned) [Compound 99], the IC50 in the experiment on MEIS1 mRNA expression (Homo sapiens, MOLM-14, 48 h) is around 792 nM; in experiment [1] it was 0.217 nM.
Turning to `CC(=O)N1CC[C@H](CN2CCC(Cc3cn(-c4ccc(F)cc4C(=O)N(C)C(C)C)c4cncc(C)c34)C2)C1` (single isomer, unassigned) [Compound 100], the IC50 in the experiment with MEIS1 mRNA expression (Homo sapiens, MOLM-14, 48 h) was found to be 434 nM; in experiment [1], 0.165 nM.
As to `CC(=O)NC(C)CN1CCC(Cc2cn(-c3ccc(F)cc3C(=O)N(C)C(C)C)c3cncc(C)c23)C1` (single isomer, unassigned) [Compound 103], the results for the half-inhibitory concentration (IC50) (in the experiment on MEIS1 mRNA expression; in experiment [1]) were around 5120 nM and 3.27 nM, respectively.
Regarding `Cc1cncc2c1c(CC1CCN(CC3CCN(C(=O)CC4CS(=O)(=O)C4)CC3)C1)cn2-c1ccc(F)cc1C(=O)N(C)C(C)C` (single isomer, unassigned) [Compound 106], the concentration for half-maximal inhibition (IC50) in the experiment with MEIS1 mRNA expression (Homo sapiens, MOLM-14, 48 h) is 104 nM; in experiment [1] it was 0.039 nM.
As for `Cc1cncc2c1c(CC1CCN(CC3CCN(C(=O)CC4CS(=O)(=O)C4)CC3)C1)cn2-c1ccc(F)cc1C(=O)N(C)C(C)C` (single isomer, unassigned) [Compound 108], the IC50 worked out at 153 nM in the experiment on MEIS1 mRNA expression and 0.161 nM in experiment [1].
For `CC(=O)NC(C)CN1CCC(Cc2cn(-c3ccc(F)cc3C(=O)N(C)C(C)C)c3cncc(C)c23)C1` (single isomer, unassigned) [Compound 119a], in that order: above 1000 nM and 0.906 nM.
As for `CC(=O)N[C@@H](C)CN1CC[C@H](Cc2cn(-c3ccc(F)cc3C(=O)N(C)C(C)C)c3cncc(C)c23)C1` (single isomer, unassigned) [Compound 119b], the IC50 with MEIS1 mRNA expression (Homo sapiens, MOLM-14, 48 h) was above 1000 nM; in experiment [1] it was 0.569 nM.
Regarding `Cc1cncc2c1c(C[C@H]1CCN(CC3CCN(C(=O)C(C)C)CC3)C1)cn2-c1ccc(F)cc1C(=O)N(C)C(C)C` (single isomer, unassigned) [Compound 121], the IC50 in the experiment on MEIS1 mRNA expression (Homo sapiens, MOLM-14, 48 h) is 13 nM; in experiment [1], 0.049 nM.
Turning to `Cc1cncc2c1c(C[C@H]1CCN(CC3CCS(=O)(=O)CC3)C1)cn2-c1ccc(F)cc1C(=O)N(C)C(C)C` (single isomer, unassigned) [Compound 124], the IC50 in the experiment with MEIS1 mRNA expression (Homo sapiens, MOLM-14, 48 h) was 114 nM; in experiment [1], 0.156 nM.

Values taken from patent US20230250096A1, “SUBSTITUTED PHENYL-1H-PYRROLO[2,3-c] PYRIDINE DERIVATIVES” (Janssen Pharmaceutica NV, priority 2021, published 2023).
